Measured values: US8278455B2, “5- or 6-substituted benzimidazole derivatives as inhibitors of respiratory syncytial virus replication” (Janssen Pharmaceutica N.V., priority 2003, dated 2012)

Test system: Respiratory Syncytial Virus
Test: In vitro screening for activity against Respiratory Syncytial Virus (MTT tetrazolium colorimetric assay, HeLa cells)
Format: cell-based
Settings: protection against RSV cytopathology in HeLa cells, 7 days after infection, pEC50 = −log of EC50 in molar units
Source text: The percent protection against cytopathology caused by viruses (antiviral activity or EC50) achieved by tested compounds and their cytotoxicity (CC50) are both calculated from dose-response curves. The selectivity of the antiviral effect is represented by the selectivity index (SI), calculated by dividing the CC50 (cytotoxic dose for 50% of the cells) by the EC50 (antiviral activity for 50% of the cells). The tables in the above experimental part list the category to which each of the prepared compounds belong. Compounds belonging to activity category “A” have an pEC50 (−log of EC50 when expressed in molar units) equal to or more than 7. Compounds belonging to activity category “B” have a pEC50 value between 6 and 7.
Automated tetrazolium-based […] assays were used for determination of EC50 and CC50 of test compounds. Flat-bottom, 96-well plastic microtiter trays were filled with 180 μl of Eagle's Basal Medium, supplemented with 5% FCS (0% for FLU) and 20 mM Hepes buffer. Subsequently, stock solutions (7.8× final test concentration) of compounds were added in 45 μl volumes to a series of triplicate wells so as to allow simultaneous evaluation of their effects on virus- and mock-infected cells. Five five-fold dilutions were made directly in the microtiter trays using a robot system. Untreated virus controls, and HeLa cell controls were included in each test. Approximately 100 TCID50 of Respiratory Syncytial Virus was added to two of the three rows in a volume of 50 μl. The same volume of medium was added to the third row to measure the cytotoxicity of the compounds at the same concentrations as those used to measure the antiviral activity. After two hours of incubation, a suspension (4×10^5 cells/ml) of HeLa cells was added to all wells in a volume of 50 μl. The cultures were incubated at 37° C. in a 5% CO2 atmosphere. Seven days after infection the cytotoxicity and the antiviral activity was examined spectrophotometrically. To each well of the microtiter tray, 25 μl of a solution of MTT (3-(4,5-dimethylthiazol-2-yl)-2,5-diphenyltetrazolium bromide) was added. The trays were further incubated at 37° C. for 2 hours, after which the medium was removed from each cup. Solubilization of the formazan crystals was achieved by adding 100 μl 2-propanol. Complete dissolution of the formazan crystals were obtained after the trays have been placed on a plate shaker for 10 min. Finally, the absorbances were read in an eight-channel computer-controlled photometer (Multiskan MCC, Flow Laboratories) at two wavelengths (540 and 690 nm). The absorbance measured at 690 nm was automatically subtracted from the absorbance at 540 nm, so as to eliminate the effects of non-specific absorption.

Row | EC50 (human respiratory syncytial virus, 168 h) | SMILES | Activity
1 | – | Cc1ccc(O)c(Cn2c(NC3CCN(C)CC3)nc3ccc(CNc4ccc(CC#N)cc4)cc32)n1 [Compound 34] | 7.8
2 | – | Cc1ccc(O)c(Cn2c(NC3CCN(C)CC3)nc3ccc(CN(CCO)Cc4ccccc4)cc32)n1 [Compound 85] | 6.8
3 | – | CCN(Cc1ccc2nc(NC3CCN(C)CC3)n(Cc3nc(C)ccc3O)c2c1)c1ccccc1 [Compound 62] | 7.3
4 | – | Cc1ccc(O)c(Cn2c(NC3CCN(C)CC3)nc3ccc(CNc4ccccc4)cc32)n1 [Compound 30] | 7.8
5 | – | Cc1ccc(O)c(Cn2c(NC3CCN(C)CC3)nc3ccc(CN(C)CCc4ccccc4)cc32)n1 [Compound 105] | 6.2
6 | – | Cc1ccc(O)c(Cn2c(NC3CCN(C)CC3)nc3ccc(CNc4ccccc4-c4ccccc4)cc32)n1 [Compound 42] | 7.6
7 | – | Cc1ccc(O)c(Cn2c(NC3CCN(CCC(N)=O)CC3)nc3cc(CCc4ccccc4)ccc32)n1 [Compound 170] | 5.7
8 | – | Cc1ccc(NCc2ccc3nc(NC4CCN(C)CC4)n(Cc4nc(C)ccc4O)c3c2)c(Cl)c1 [Compound 73] | 7.1
9 | – | Cc1ccc(O)c(Cn2c(NC3CCN(C)CC3)nc3cc(C(=O)NCCc4ccccc4)ccc32)n1 [Compound 120] | 4.6
10 | – | Cc1ccc(O)c(Cn2c(NC3CCN(C)CC3)nc3ccc(CNCCN4CCOCC4)cc32)n1 [Compound 117] | 5.1
11 | – | Cc1cc(C)cc(NCc2ccc3c(c2)nc(NCCCN2CCN(C)CC2)n3Cc2nc(C)ccc2O)c1 [Compound 179] | 6.2
12 | – | Cc1cccc(SCc2ccc3c(c2)nc(NC2CCN(C)CC2)n3Cc2nc(C)ccc2O)c1 [Compound 132] | <4
13 | – | Cc1ccc(O)c(Cn2c(NC3CCN(C)CC3)nc3ccc(CNc4cccc(Cl)c4C)cc32)n1 [Compound 40] | 7.6
14 | – | Cc1ccc(O)c(Cn2c(NCCCN3CCN(C)CC3)nc3ccc(CO)cc32)n1 [Compound 178] | 6.5
15 | – | Cc1ccc(O)c(Cn2c(NCCc3ccccc3)nc3ccc(CO)cc32)n1 [Compound 188] | 4.4
16 | – | Cc1ccc(O)c(Cn2c(NC3CCN(Cc4ccccc4)CC3)nc3ccc(CNc4cc(Cl)cc(Cl)c4)cc32)n1 [Compound 165] | 7.1
17 | – | COc1ccc(NCc2ccc3nc(NC4CCN(C)CC4)n(Cc4nc(C)ccc4O)c3c2)cc1OC [Compound 61] | 7.3
18 | – | Cc1ccc(O)c(Cn2c(NC3CCN(C)CC3)nc3ccc(CNc4cccc(F)c4)cc32)n1 [Compound 18] | 7.9
19 | – | Cc1ccc(CCc2ccc3nc(NC4CCN(C)CC4)n(Cc4nc(C)ccc4O)c3c2)cc1 [Compound 84] | 6.8
20 | – | Cc1ccc(O)c(Cn2c(NC3CCN(C)CC3)nc3ccc(C(=O)NCCc4ccccc4)cc32)n1 [Compound 136] | <4

Row | EC50 (human respiratory syncytial virus, 168 h) | SMILES | Activity
21 | – | CC(=O)Nc1cccc(NCc2ccc3nc(NC4CCN(C)CC4)n(Cc4nc(C)ccc4O)c3c2)c1 [Compound 49] | 7.4
22 | – | Cc1ccc(O)c(Cn2c(NCCc3ccccc3)nc3cc(CO)ccc32)n1 [Compound 185] | <4
23 | – | Cc1cc(C)cc(NCc2ccc3nc(NCC4COC(C)(C)O4)n(Cc4nc(C)ccc4O)c3c2)c1 (stereo not drawn) [Compound 184] | <4
24 | – | Cc1ccc(O)c(Cn2c(NC3CCN(C)CC3)nc3ccc(NC(=O)Cc4ccccc4)cc32)n1 [Compound 107] | 6.1
25 | – | Cc1ccc(O)c(Cn2c(NCCCN3CCCCC3)nc3cc(CO)ccc32)n1 [Compound 182] | 5
26 | – | Cc1ccc(O)c(Cn2c(NC3CCN(C)CC3)nc3ccc(CNc4ccc(Br)c(C)c4)cc32)n1 [Compound 68] | 7.2
27 | – | Cc1ccc(O)c(Cn2c(NC3CCN(CCC(N)=O)CC3)nc3cc(C=Cc4ccccc4)ccc32)n1 [Compound 166] | 6.8
28 | – | Cc1ccc(O)c(Cn2c(NC3CCN(C)CC3)nc3ccc(C(=O)NCc4ccco4)cc32)n1 [Compound 119] | 4.8
29 | – | Cc1ccc(NCc2ccc3nc(NC4CCN(C)CC4)n(Cc4nc(C)ccc4O)c3c2)cc1 [Compound 37] | 7.7
30 | – | Cc1cc(C)c(NCc2ccc3nc(NC4CCN(C)CC4)n(Cc4nc(C)ccc4O)c3c2)c(Cl)c1 [Compound 88] | 6.8
31 | – | Cc1ccc(O)c(Cn2c(NC3CCN(C)CC3)nc3ccc(Cn4ccnc4)cc32)n1 [Compound 79] | 6.9
32 | – | Cc1ccc(O)c(Cn2c(NCCCN3CCCCC3)nc3ccc(CO)cc32)n1 [Compound 177] | 7.1
33 | – | Cc1ccc(O)c(Cn2c(NC3CCN(C)CC3)nc3ccc(CNc4cc(C)c(C)cc4S)cc32)n1 [Compound 91] | 6.7
34 | – | Cc1ccc(O)c(Cn2c(NC3CCN(CCO)CC3)nc3ccc(CCc4ccccc4)cc32)n1 [Compound 162] | 7.5
35 | – | COCCN(CCOC)Cc1ccc2nc(NC3CCN(C)CC3)n(Cc3nc(C)ccc3O)c2c1 [Compound 102] | 6.4
36 | – | Cc1ccc(O)c(Cn2c(NC3CCN(C)CC3)nc3ccc(CN(CC(=O)O)c4ccccc4)cc32)n1 [Compound 39] | 7.7
37 | – | Cc1cc(C)c(NCc2ccc3nc(NC4CCN(C)CC4)n(Cc4nc(C)ccc4O)c3c2)c(C)c1 [Compound 96] | 6.6
38 | 0.0631 µM | Cc1cccc(C(=O)Nc2ccc3nc(NC4CCN(C)CC4)n(Cc4nc(C)ccc4O)c3c2)c1 [Compound 65, N-[3-(3-hydroxy-6-methyl-pyridin-2-yl-methyl)-2-(1-methyl-piperidin-4-ylamino)-3H-benzoimidazol-5-yl]-3-methyl-benzamide] | –
39 | – | Cc1ccc(O)c(Cn2c(NC3CCN(C)CC3)nc3cc(NC(=O)Cc4ccccn4)ccc32)n1 [Compound 113] | 5.5
40 | – | Cc1ccc(O)c(Cn2c(NC3CCN(C)CC3)nc3ccc(CNc4ccc(Br)cc4Cl)cc32)n1 [Compound 89] | 6.8

Row | EC50 (human respiratory syncytial virus, 168 h) | SMILES | Activity
41 | – | Cc1ccc(/C=C/c2ccc3nc(NC4CCN(C)CC4)n(Cc4nc(C)ccc4O)c3c2)cc1 [Compound 128] | <4
42 | – | Cc1ccc(O)c(Cn2c(NC3CCN(C)CC3)nc3ccc(CNc4cccc(C)c4C)cc32)n1 [Compound 20] | 7.9
43 | – | Cc1ccc(O)c(Cn2c(NC3CCN(C)CC3)nc3ccc(CNc4ccc(Cl)cc4Br)cc32)n1 [Compound 83] | 6.9
44 | – | Cc1ccc(O)c(Cn2c(NC3CCN(C)CC3)nc3ccc(CNc4c(C)cc(Br)cc4C)cc32)n1 [Compound 87] | 6.8
45 | – | Cc1ccc(O)c(Cn2c(NC3CCN(C)CC3)nc3cc(C(=O)NCc4ccccn4)ccc32)n1 [Compound 135] | <4
46 | – | Cc1cccc(/C=C/c2ccc3nc(NC4CCN(C)CC4)n(Cc4nc(C)ccc4O)c3c2)c1 [Compound 103] | 6.3
47 | – | Cc1ccc(O)c(Cn2c(NC3CCN(C)CC3)nc3ccc(CNc4c(C)cccc4C(C)C)cc32)n1 [Compound 82] | 6.9
48 | – | CCc1ccccc1NCc1ccc2nc(NC3CCN(C)CC3)n(Cc3nc(C)ccc3O)c2c1 [Compound 8] | 8.4
49 | – | Cc1ccc(O)c(Cn2c(NC3CCN(C)CC3)nc3ccc(CN(C)c4ccccc4)cc32)n1 [Compound 51] | 7.4
50 | – | Cc1ccc(O)c(Cn2c(NCCc3ccccc3)nc3ccc(CNc4cc(Cl)cc(Cl)c4)cc32)n1 [Compound 192] | <4
51 | – | Cc1ccc(O)c(Cn2c(NC3CCN(C)CC3)nc3ccc(C(O)c4ccccc4)cc32)n1 (stereo not drawn) [Compound 86] | 6.8
52 | – | CSc1cccc(NCc2ccc3nc(NC4CCN(C)CC4)n(Cc4nc(C)ccc4O)c3c2)c1 [Compound 25] | 7.9
53 | – | Cc1cc(C)cc(N(CCN(C)C)Cc2ccc3nc(NC4CCN(C)CC4)n(Cc4nc(C)ccc4O)c3c2)c1 [Compound 5] | 8.5
54 | – | Cc1ccc(O)c(Cn2c(NC3CCN(C)CC3)nc3ccc(CNc4ccc(Br)c(F)c4)cc32)n1 [Compound 69] | 7.2
55 | – | Cc1ccc(O)c(Cn2c(NC3CCN(C)CC3)nc3ccc(NCc4ccccc4)cc32)n1 [Compound 56] | 7.3
56 | – | Cc1ccc(O)c(Cn2c(NC3CCN(C)CC3)nc3ccc(CCc4ccccc4)cc32)n1 [Compound 29] | 7.8
57 | – | Cc1ccc(O)c(Cn2c(NC3CCN(CCC(N)=O)CC3)nc3ccc(CCc4ccccc4)cc32)n1 [Compound 163] | 7.2
58 | – | CCCCN(CCO)Cc1ccc2nc(NC3CCN(C)CC3)n(Cc3nc(C)ccc3O)c2c1 [Compound 109] | 6
59 | – | CC(=O)c1ccc(NCc2ccc3nc(NC4CCN(C)CC4)n(Cc4nc(C)ccc4O)c3c2)cc1 [Compound 17] | 8
60 | – | CCc1cccc(C)c1NCc1ccc2nc(NC3CCN(C)CC3)n(Cc3nc(C)ccc3O)c2c1 [Compound 47] | 7.5
